Source: patent publication US8765409B2, “Efficient production of heterologous proteins using mannosyl transferase inhibitors” (Merck Sharp & Dohme Corp., priority 2008, dated 2014)

How the values were obtained:
[1] = system: O-glycosylation of anti-Her2 heavy chain (Hc) in Pichia pastoris strain yGLY4280; assay: Western blot of anti-Her2 heavy chain O-glycosylation with 2-fold dilutions of Pmt inhibitor in 96-well plates (FIG. 1); assay type: cell-based; conditions: 2-fold dilutions 5 to 0.009 ug/mL, 24 hours; for concentration as low as which O-glycosylation of anti-Her2 Hc was effectively reduced: Western blot
Source text: FIG. 1 illustrates the effect of Pmt inhibitors including the novel inhibitor shown as Example 4 on O-glycosylation of secreted recombinant monoclonal antibody in Pichia pastoris. […] Western blotting using an anti-human H+L antibody was used to detect heavy (Hc) and light (Lc) chains in the growth media of strains treated with increasing amounts of Pmt inhibitor (higher doses in left lanes). The slowest migrating band (marked with asterisk) indicates the O-glycosylated Hc which is eliminated by Pmt inhibitor treatment. […] Strain yGLY4280 was inoculated into 96-well deep well plates (Qiagen, Valencia, Calif.) containing 0.5 ml of BMGY media per well. After 24 hours growth with vigorous shaking, the 96-well plate was centrifuged at 2,000 rpm for five minutes to pellet cells. The media was removed and, following a wash step with 0.5 mL of BMMY media, the cells resuspended in 0.2 mL BMMY media in which Pmt inhibitors were diluted 2-fold across the rows (11 wells). Well #1 contained 5 ug/mL of inhibitor, well #2 contained 2.5 ug/mL and so on until well #10 contained 0.009 ug/mL; well #11 contained no inhibitor. After an additional 24 hours growth with vigorous shaking, the plate was centrifuged at 2,000 rpm for five minutes to pellet cells, and the cleared supernatant subjected to Western blot analysis to detect anti-Her2 expression. The Western blotting was performed as follows: seven μL of the supernatants were separated by reducing polyacrylamide gel electrophoresis (SDS-PAGE) according to Laemmli, U. K. (1970) Nature 227, 680-685 and then electroblotted onto nitrocellulose membranes (Schleicher & Schuell, now Whatman, Inc., Florham Park, N.J.). Anti-Her2 antibody chains were detected on the Western blots using a peroxidase-conjugated anti-human Hc and Lc antibody (Calbiochem/EMD Biosciences, La Jolla, Calif.) and developed using the ImmunoPure Metal Enhanced DAB Substrate Kit (Pierce Biotechnology, Rockford, Ill.).

[2] = system: O-glycosylation of human anti-Her2 antibody in Pichia pastoris strain yGLY4280 (Pmt-mediated); assay: O-glycan occupancy of secreted anti-Her2 antibody (Dionex HPAEC-PAD) from shake-flask cultures treated with Pmt inhibitor; assay type: cell-based; conditions: inhibitor 0.15 ug/mL added at induction; 24 hr in induction media; protein A purified anti-Her2; no inhibitor >14.0
Procedure: Anti-Her2 protein expression for strain yGLY4280 was carried out in shake flasks at 24° C. with buffered glycerol-complex medium (BMGY) consisting of 1% yeast extract, 2% peptone, 100 mM potassium phosphate buffer pH 6.0, 1.34% yeast nitrogen base, 4×10-5% biotin, and 1% glycerol. The induction medium for protein expression was buffered methanol-complex medium (BMMY) consisting of 1% methanol instead of glycerol in BMGY. Pmt inhibitors in 100% methanol were added to the growth medium to a final concentration of 0.15 ug/mL at the time the induction medium was added. This is an intermediate dose that is sufficient to reduce O-glycosylation to roughly 50% of that observed without Pmt inhibitor treatment, and thus allows a comparison of potency for the different inhibitors. Following 24 hr further growth in the induction media, cultures were harvested and centrifuged at 2,000 rpm for five minutes to remove cells from the supernatant.
O-glycan determination was performed using a Dionex-HPLC(HPAEC-PAD) as follows. To measure O-glycosylation reduction, protein was purified from the growth medium using protein A chromatography (Li et al. Nat. Biotechnol. 24(2):210-5 (2006)) and the O-glycans released from and separated from protein by alkaline elimination (beta-elimination) (Harvey, Mass Spectrometry Reviews 18: 349-451 (1999)). This process also reduces the newly formed reducing terminus of the released O-glycan (either oligomannose or mannose) to mannitol. The mannitol group thus serves as a unique indicator of each O— glycan. 0.5 nmole or more of protein, contained within a volume of 100 μL PBS buffer, was required for beta elimination. The sample was treated with 25 μL alkaline borohydride reagent and incubated at 50° C. for 16 hours. About 20 uL arabitol internal standard was added, followed by 10 μL glacial acetic acid. The sample was then centrifuged through a Millipore filter containing both SEPABEADS and AG 50W-X8 resin and washed with water. The samples, including wash, were transferred to plastic autosampler vials and evaporated to dryness in a centrifugal evaporator. 150 μL 1% AcOH/MeOH was added to the samples and the samples evaporated to dryness in a centrifugal evaporator. This last step was repeated five more times. 200 μL of water was added and 100 μL of the sample was analyzed by high pH anion-exchange chromatography coupled with pulsed electrochemical detection-Dionex HPLC(HPAEC-PAD). Average O-glycan occupancy was determined based upon the amount of mannitol recovered.

Structure (SMILES) | concentration as low as which O-glycosylation of anti-Her2 Hc was effectively reduced [1] [µg/mL] | O-glycan occupancy (moles O-mannose/moles Ab) [2] [moles O-mannose/moles Ab] | effect on O-glycosylation of anti-Her2 Hc (Western blot, in words) ([1]; FIG. 1)
O=C(O)CN1C(=O)/C(=C/c2ccc(OCCc3ccccc3)c(OC(CO)c3ccccc3)c2)SC1=S (centres unmarked) [Pmti-3, reference compound] | 0.018 | 8.1 | –
O=C(O)CN1C(=O)/C(=C/c2ccc(OCCc3ccc(F)cc3)c(OC(c3ccccc3)C3CCCCC3)c2)SC1=S (centres unmarked) [Example 3] | – | 5.5 | –
CC(C)COCC(Oc1cc(/C=C2\SC(=S)N(CC(=O)O)C2=O)ccc1OCCc1ccc(F)cc1)c1ccccc1 (centres unmarked) [Example 4] | 0.018 | 5.2 | reduced O-glycosylation in a dose-dependent fashion
O=C(O)CN1C(=O)/C(=C/c2ccc(OCCc3ccc(F)cc3)c(OC(c3ccccc3)c3ccccc3)c2)SC1=S [Example 2] | – | 4.3 | –
COCC(COC)(Oc1cc(/C=C2/SC(=S)N(CC(=O)O)C2=O)ccc1OCCc1ccc(F)cc1)c1ccccc1 [Example 1] | – | 4.1 | –
